Test results as given in US20250339445A1, “Modulators of Orphan Nuclear Receptors for Treating Pancreatitis, Glioblastoma, Sarcopenia and Stroke” (Emory University, priority 2020, published 2025).
“Also recorded” adds a separate entry of the source.

Assays:
[1] = test system: high fat diet (HFD) C57BL/6 mice; test: HFD-fed C57BL/6 mice, 15 mg/kg Compound 1 (Example 8); format: in vivo
Method: Male C57BL/6J mice, 7 to 8 weeks old, were housed randomly in standard cages and were fed a HFD, or atherogenic diet (consisting 1% Chol and 0.5% cholic acid, see also Table 6). All mice had free access to water during the experimental period. During the feeding period body weight was monitored every 3 days. In the HFD experiment, after 4 or 6 weeks, the resultant obese mice were treated with antagomiR-122 (5 μg/mouse once a week for 3 weeks), or i.p. injected with Compound 1 (RORα agonist, 7.5 mg/kg twice a week for 3 weeks; or 15 mg/kg 3 times a week for 3 weeks). The obese control (HFD) group was administered only saline with DMSO and antagomiR-control. After 3 weeks of treatment mice were sacrificed and livers were taken for RNA-seq analysis. Livers, white adipose, and skeletal muscle tissues were frozen in liquid nitrogen or in optimum cutting temperature embedded frozen blocks, for further RNA and histologic analysis. In the atherogenic diet experiment mice were treated with 15 mg/kg Compound 1 after 3 weeks with the diet. After 3.5 weeks of treatment, mice were sacrificed, and the livers were frozen in liquid nitrogen or in optimum cutting temperature embedded frozen blocks. Plasma was collected from atherogenic diet-fed mice and saved in −20° C. for ALT and AST analysis using the Reflotron® Analyzer and test-strips (Roche).
Experimental design: C57BL/6 mice fed for 6 weeks with high fat diet (HFD) were injected with 15 mg/kg Compound 1 (or saline+DMSO) 3 times a week for 3 weeks (n=6).

RORα = molecular target: T1, RORα (Homo sapiens, UniProt P35398); test: RORα activity by luciferase reporter (miR-122 promoter) in Huh-7 cells; format: cell-based
T1 construct: endogenous in cells; host or cells: Huh-7 (Huh7) human hepatocellular carcinoma cells
T1 sequence (P35398 1-523): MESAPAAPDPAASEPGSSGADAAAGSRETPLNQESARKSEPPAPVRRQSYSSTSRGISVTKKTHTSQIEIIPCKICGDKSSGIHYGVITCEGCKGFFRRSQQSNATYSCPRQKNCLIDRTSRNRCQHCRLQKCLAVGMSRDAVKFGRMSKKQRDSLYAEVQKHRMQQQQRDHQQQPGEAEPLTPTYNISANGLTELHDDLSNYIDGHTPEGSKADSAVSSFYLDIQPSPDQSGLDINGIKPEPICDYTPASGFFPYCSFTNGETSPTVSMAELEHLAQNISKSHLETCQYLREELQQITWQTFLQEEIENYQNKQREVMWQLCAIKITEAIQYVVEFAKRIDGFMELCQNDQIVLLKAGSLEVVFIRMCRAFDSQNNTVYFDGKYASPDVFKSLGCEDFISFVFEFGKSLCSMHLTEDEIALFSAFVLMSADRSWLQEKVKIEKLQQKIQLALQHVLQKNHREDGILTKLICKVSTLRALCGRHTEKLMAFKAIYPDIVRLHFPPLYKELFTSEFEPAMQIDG
Method: Huh-7 cells were transfected with a luciferase reporter plasmid containing the miR-122 promoter (extends to −900 from the transcription start site) with intact wild-type (WT) RORα response element (RORE) or mutated RORE (mut). The cells were treated with Compound 1 one day (24 hours) post-transfection at the indicated concentrations. Luciferase expression was measured after 24 hours of treatment and normalized to Renilla Luciferase activity expressed from a co-transfected pRL plasmid. The pRL Vector, which provides constitutive expression of Renilla luciferase, was used in combination with a firefly luciferase vector to co-transfect cells. Expression of Renilla luciferase provides an internal control value to which expression of the experimental firefly luciferase reporter gene may be normalized.
Luciferase assay. For Luciferase assays, cells grown in 24 well plates were co-transfected with a luciferase reporter plasmid (50 ng) and 1 ng of Renilla Luciferase vector (PRL, Promega) using the TransIT-LT 1 (Mirus) transfection reagent (MIR 2300, Madison, WI). Firefly and Renilla luciferase activity was assessed using the Dual Luciferase Reporter Assay system (Promega). Readings were taken in triplicates on a Mithras LB 940 Luminometer (Berthold Technologies). […]
(§1) Following transfections, the cells were lysed with passive lysis buffer (Cat #E1941; Promega), shaking for 20 min at RT and transferred into appropriate 96-well plate. Firefly and Renilla luciferase activity was assessed using the Dual Luciferase Reporter Assay system (Cat #E1910; Promega) on a luminometer Mithras 2000 (Centro XZ, LB960, Berthold Technologies, Bad Wildbad, Germany). […] Readings were taken in triplicate.
as §1, with “room temperature (RT)” for “RT”, “into the” for “into”, “triplicates. […]” for “triplicate.”
After transfections, the cells were lysed with passive lysis buffer (catalog no. E1941, Promega), shaken for 20 minutes at room temperature, and transferred into the appropriate 96-well plate. Firefly and Renilla luciferase activity was assessed using the Dual Luciferase Reporter Assay system (catalog no. E1910, Promega) on a luminometer Mithras 2000 (Centro XZ, LB960; Berthold Technologies, Bad Wildbad, Germany). […] Readings were taken in triplicate.

Q: With `O=C1Nc2cc(C(=O)N3CCC(Cc4ccccc4)CC3)ccc2Nc2ccccc21` [Compound 1] as the molecule, how does the “Expression of RORα-regulated genes FGF21 and Gpase6” value ([1]; HFD 6 weeks, 15 mg/kg 3 times a week for 3 weeks, liver) read?
A: significantly induced expression

Q: What about the “miR-122 and precursors in plasma and liver” value ([1]; HFD 6 weeks, 15 mg/kg 3 times a week for 3 weeks, 15 mg/kg) of the same molecule?
A: induced expression and secretion; also recorded: increased

Q: What about the “Hepatic synthesis of triglycerides” value ([1]; mice fed a HFD or atherogenic diet) of the same molecule?
A: reduced hepatic synthesis of triglycerides

Q: And the “Induction of MIR122 promoter, compared with screened set and SR1078” value (RORα; Huh7, overnight, 1 μM tested compounds, 10 μM SR1078)?
A: most potent

Q: And the “Luciferase expression from miR-122 promoter with mutated RORE” value (RORα; Huh-7, mutated RORE)?
A: negates activity; also recorded: no activity; also recorded: no induction

Q: What about the “Luciferase expression from miR-122 promoter with WT RORE” value (RORα; Huh-7, wild-type RORE, 24 hours of treatment) of the same molecule?
A: dose-dependent increase; also recorded: induces expression of RORα-regulated luciferase; also recorded: increase expression of MIR122 promoter activity
